This note sets out measurements from patent publication US9145411B2, “Substituted amino-pyrimidine derivatives” (Asana Biosciences, LLC, priority 2012, dated 2015).

The subject of one assay is pS6RP. Briefly: In-cell Western assay, pS6RP, U87MG cells. The assay is classed as cell-based. The conditions noted are these: Homo sapiens, U-87 MG, read-out: inhibition of pS6RP, IC50. As to the method:
Cells from human prostate cancer cell line PC3 (American Type Culture Collection (ATCC), Manassas, Va. 20108 USA) were seeded at an optimal density of 22,000 cell/well in 96-well plates containing Ham's F12K medium (90 μL) and incubated overnight. The compound dilutions were carried out in 100% DMSO followed by a dilution in the medium. Test compounds were added in serial dilutions to the wells and incubated for 2 hours. The cells were washed and fixed with 4% paraformaldehyde. After incubation at room temperature for 1 hour in the dark, blocking was done for 2 hours at room temperature. […] IC50 values were calculated using a sigmoidal dose-response curve fit in GraphPad Prism® v5 software.
In-cell Western assays for pAkt(T308) and pS6RP were also carried out in a glioma cancer cell line with a PTEN null mutation (U87MG cells), in a similar manner to the protocol described above for PC3 cells, in order to assess the ability of the compounds to inhibit the Akt-pathway in a glioma cancer cell line. […] Compounds of the invention cause inhibition of pAkt(T308), pAkt(S473) and pS6RP in U87MG, BT474 and T47D cell lines as determined by these assays.

In another assay the target is PI3 kinase isoform β (Homo sapiens, UniProt P42338). In words: PI3 Kinase TR-FRET assay, isoform β. The assay is classed as biochemical. The conditions noted are these: read-out: inhibition of PI3 kinase isoform β, IC50. The protocol:
The ability of compounds of the invention to inhibit PI3K activity was determined in a homogeneous TR-FRET assay using a PI3K assay kit (Millipore, USA; cat #33-016) according to manufacturer's instructions. PI3-Kinases (isoforms α, β, γ and δ) catalyze the phosphorylation of phosphatidylinositol, PIP2 to PIP3 in the presence of ATP and Mg^2+. The PIP3 product is detected by displacement of biotin-PIP3 from an energy transfer complex consisting of Europium labeled anti-GST monoclonal antibody, a GST-tagged PH domain, biotinylated PIP3 and Streptavidin-APC. Excitation of Europium in the complex results in an energy transfer to the APC and a fluorescence emission at 665 nm. The PIP3 product displaces biotin-PIP3 from the complex resulting in a loss of energy transfer and thus a decrease in signal.
To test for the ability of compounds to inhibit the activity of PI3Kα (wild-type), exemplary compounds of formula (I) were dissolved in DMSO and directly distributed into 384-well plates at a volume of 0.5 μL. […] Fluorescence was measured at 615 and 665 nm upon excitation at 340 nm in a Victor™ V5 fluorometer (Perkin Elmer, USA). The fluorescence emission ratio at 665 to 615 nm, proportional to the kinase activity, was plotted against the compound concentration to generate dose-response curves and IC50 values were determined using GraphPad Prism® 5 software. […]

The subject of the next assay is PC3 cells. Briefly: In vivo efficacy study (tumor growth suppression), PC3 xenograft. Conditions: athymic male mice, after 14 days of dosing at 50 mg/kg qd po. The protocol: PC3 cells were cultured at 37° C. in a 5% CO2 incubator using Hams F12 K medium. Five million (5×10^6) cells were implanted subcutaneously to the right flank of athymic male mice (Harlan, age: 6-7 weeks, weight: about 20 g). Tumor bearing mice were randomized when the tumor volume reached about 100 mm^3 Ten mice were used per group. Compounds of formula (I) were typically formulated using HPCD in PBS, pH 7.4 or in 10% Ethanol/40% Solutol/50% 50 mM aq. methanesulfonic acid and dosed orally (dose volume, 10 mL/kg). Solutions of the compounds were prepared immediately before dosing the animals. A vehicle control and a reference compound were included along with test compounds.
The tumor size was measured on alternate days using Vernier® calipers. Assuming tumors to be ellipsoid, the tumor volume was calculated using the formula: V=(D×d^2)/2 • where: • V (mm^3) is tumor volume • D is longest diameter in mm • d is shortest diameter in mm.
Changes in tumor volume (Δ volumes) for each treated (T) and control (C) group were calculated by subtracting the mean tumor volume on the first day of treatment (starting day) from the mean tumor volume on the specified observation day. […]
Percentage tumor growth inhibition was calculated as [100−% T/C]. Percentage body weight change was calculated as [(Body weight on specified observation day−Body weight on starting day)/Body weight on starting day]×100. […]

Chain of PI3 kinase isoform β (P42338 whole entry, the tested form may be a part, canonical isoform): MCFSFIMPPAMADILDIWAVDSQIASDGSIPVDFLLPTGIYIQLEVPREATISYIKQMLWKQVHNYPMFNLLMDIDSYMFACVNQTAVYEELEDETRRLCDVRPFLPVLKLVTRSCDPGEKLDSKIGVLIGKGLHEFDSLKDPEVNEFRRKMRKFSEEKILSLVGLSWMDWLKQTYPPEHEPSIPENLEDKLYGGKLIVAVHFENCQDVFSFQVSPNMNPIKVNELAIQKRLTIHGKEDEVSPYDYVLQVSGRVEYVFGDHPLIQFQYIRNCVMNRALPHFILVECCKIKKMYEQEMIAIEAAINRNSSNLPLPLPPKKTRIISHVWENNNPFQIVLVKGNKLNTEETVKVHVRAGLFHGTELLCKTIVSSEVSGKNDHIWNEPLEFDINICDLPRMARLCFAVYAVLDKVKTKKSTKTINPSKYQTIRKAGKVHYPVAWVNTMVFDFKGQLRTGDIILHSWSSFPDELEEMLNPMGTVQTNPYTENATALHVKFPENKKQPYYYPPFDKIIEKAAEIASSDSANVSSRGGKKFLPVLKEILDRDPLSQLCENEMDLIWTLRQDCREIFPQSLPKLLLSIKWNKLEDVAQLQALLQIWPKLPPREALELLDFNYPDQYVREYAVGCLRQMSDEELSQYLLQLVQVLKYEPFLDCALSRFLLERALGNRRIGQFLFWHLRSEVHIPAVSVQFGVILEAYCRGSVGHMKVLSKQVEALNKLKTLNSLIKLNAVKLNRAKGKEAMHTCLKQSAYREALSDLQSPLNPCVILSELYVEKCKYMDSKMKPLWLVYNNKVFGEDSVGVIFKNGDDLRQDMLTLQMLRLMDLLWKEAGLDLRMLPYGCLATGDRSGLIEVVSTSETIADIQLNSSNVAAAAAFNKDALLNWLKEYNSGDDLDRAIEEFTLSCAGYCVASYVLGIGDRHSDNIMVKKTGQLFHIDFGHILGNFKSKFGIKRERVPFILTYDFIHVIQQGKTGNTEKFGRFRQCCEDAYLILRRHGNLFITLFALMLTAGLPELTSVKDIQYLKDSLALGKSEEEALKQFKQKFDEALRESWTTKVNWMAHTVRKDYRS
Chain of PI3 kinase isoform β (P27986 whole entry partner, the tested form may be a part, canonical isoform): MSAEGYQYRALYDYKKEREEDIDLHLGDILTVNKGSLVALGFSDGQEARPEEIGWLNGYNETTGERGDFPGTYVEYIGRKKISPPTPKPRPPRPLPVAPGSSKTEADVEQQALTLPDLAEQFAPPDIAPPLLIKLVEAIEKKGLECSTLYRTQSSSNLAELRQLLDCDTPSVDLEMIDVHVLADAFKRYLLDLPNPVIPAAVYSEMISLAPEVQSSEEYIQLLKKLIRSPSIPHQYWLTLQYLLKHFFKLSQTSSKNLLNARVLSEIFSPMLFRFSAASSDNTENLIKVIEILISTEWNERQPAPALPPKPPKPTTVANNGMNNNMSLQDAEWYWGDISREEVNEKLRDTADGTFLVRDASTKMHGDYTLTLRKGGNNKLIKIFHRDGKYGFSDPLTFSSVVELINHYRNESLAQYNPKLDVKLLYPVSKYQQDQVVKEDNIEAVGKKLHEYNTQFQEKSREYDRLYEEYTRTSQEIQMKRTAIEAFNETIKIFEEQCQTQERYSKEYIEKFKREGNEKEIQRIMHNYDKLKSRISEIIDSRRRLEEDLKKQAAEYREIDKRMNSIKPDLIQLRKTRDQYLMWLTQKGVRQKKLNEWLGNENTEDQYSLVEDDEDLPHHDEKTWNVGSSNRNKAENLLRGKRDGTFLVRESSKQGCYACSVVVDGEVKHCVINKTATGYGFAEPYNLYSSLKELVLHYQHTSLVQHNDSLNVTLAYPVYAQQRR

For the compound `CC(=O)Nc1cccc(-c2cnc3c(N4CCOCC4)nc(-c4cnc(N)nc4)nc3c2)c1` [Example 3, N-(3-(2-(2-Aminopyrimidin-5-yl)-4-morpholinopyrido[3,2-d]pyrimidin-7-yl)-phenyl)acetamide], the IC50 in the assay on pS6RP and at PI3 kinase isoform β was below 500 nM throughout. In addition, the “tumor growth inhibition relative to vehicle control group” value in the assay on PC3 cells is given as “more than 40%”.
